Measurements reported in patent US4857547A, “Novel HMG-CoA reductase inhibitors” (Merck & Co., Inc., priority 1988, dated 1989).

Molecular target: T1, HMG-CoA reductase (Rattus norvegicus, UniProt P51639)
T1 sequence (P51639 1-887): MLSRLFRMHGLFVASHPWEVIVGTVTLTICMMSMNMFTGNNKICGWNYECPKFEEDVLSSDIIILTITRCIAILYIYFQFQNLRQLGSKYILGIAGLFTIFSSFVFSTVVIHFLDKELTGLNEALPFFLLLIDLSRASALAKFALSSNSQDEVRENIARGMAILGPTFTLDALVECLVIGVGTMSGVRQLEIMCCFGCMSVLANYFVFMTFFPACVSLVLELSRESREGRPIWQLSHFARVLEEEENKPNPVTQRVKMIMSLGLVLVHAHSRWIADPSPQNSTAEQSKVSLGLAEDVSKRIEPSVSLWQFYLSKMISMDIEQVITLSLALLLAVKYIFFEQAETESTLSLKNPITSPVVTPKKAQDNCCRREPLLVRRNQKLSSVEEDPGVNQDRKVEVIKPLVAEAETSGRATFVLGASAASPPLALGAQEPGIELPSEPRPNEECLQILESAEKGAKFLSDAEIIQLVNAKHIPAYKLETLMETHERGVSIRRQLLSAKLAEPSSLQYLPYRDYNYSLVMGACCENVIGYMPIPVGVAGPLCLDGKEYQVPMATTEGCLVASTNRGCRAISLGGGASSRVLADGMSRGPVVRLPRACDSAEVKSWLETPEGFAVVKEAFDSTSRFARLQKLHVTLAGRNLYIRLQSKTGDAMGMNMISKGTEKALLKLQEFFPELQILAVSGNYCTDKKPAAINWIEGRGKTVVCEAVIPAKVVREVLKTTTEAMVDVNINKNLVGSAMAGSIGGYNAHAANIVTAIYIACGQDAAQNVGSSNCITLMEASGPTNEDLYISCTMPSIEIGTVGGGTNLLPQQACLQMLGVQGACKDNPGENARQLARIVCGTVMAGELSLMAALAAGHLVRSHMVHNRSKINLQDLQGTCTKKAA
Experiment: intrinsic HMG-CoA reductase inhibition, in vitro protocol (J. Med. Chem., 28, p. 347-358 (1985))
Type: biochemical
Conditions: compactin (mevastatin) assigned a value of 100; IC50 of test compound compared with that of mevastatin determined simultaneously
Protocol: The intrinsic HMG-CoA reductase inhibition activity of the claimed compounds is measured in the in vitro protocol published in J. Med. Chem., 28, p. 347-358 (1985).
For estimation of relative inhibitory potencies, compactin (i.e., mevastatin) was assigned a value of 100 and the IC50 value of the test compound was compared with that of mevastatin (compactin) determined simultaneously in the published in vitro protocol.

| Relative Potency | Compound |
| --- | --- |
| 75 | CCC(C)(C)C(=O)O[C@H]1CC(CO)=CC2=CC[C@H](C)[C@H](CC[C@@H]3C[C@@H](O)CC(=O)O3)[C@H]21 [Example 1, 6(R)-[2-[8(S)-(2,2-dimethylbutyryloxy)-2(S)-methyl-6-hydroxymethyl-1,2,3,7,8,8a(R)-hexahydronaphthyl-1(S)]-ethyl]-4(R)-hydroxy-3,4,5,6-tetrahydro-2H-pyran-2-one] |
| 200 | CCC(C)(C)C(=O)O[C@H]1CC(COC(=O)Nc2ccccc2)=CC2=CC[C@H](C)[C@H](CC[C@@H]3C[C@@H](O)CC(=O)O3)[C@H]21 [Example 4, 6(R)-[2-[8(S)-(2,2-dimethylbutyryloxy)-2(S)-methyl-6-phenylaminocarbonyloxymethyl-1,2,3,7,8,8a(R)-hexahydronaphthyl-1(S)]-ethyl]-4(R)-hydroxy-3,4,5,6-tetrahydro-2H-pyran-2-one] |
| 100 | CCC(C)(C)C(=O)O[C@H]1CC(C(=O)O)=CC2=CC[C@H](C)[C@H](CC[C@@H]3C[C@@H](O)CC(=O)O3)[C@H]21 [Example 2, 6(R)-[2-[8(S)-(2,2-dimethylbutyryloxy)-2(S)-methyl-6-carboxy-1,2,3,7,8,8a(R)-hexahydronaphthyl-1(S)]-ethyl]-4(R)-hydroxy-3,4,5,6-tetrahydro-2H-pyran-2-one] |
